This assay deals with T1, JAK2 (Homo sapiens, UniProt O60674).
T1 construct: endogenous in cells; host or cells: TF-1 (human erythroid leukemia) cells, EPO-stimulated
Kind of assay: JAK2 EPO-TF1/pSTAT5 cell-based assay (Cellomics ArrayScan HCS). The settings on record: TF-1 cells, EPO 1.6 U/mL stimulated, n=4; read-out: relative IC50, inhibition of pSTAT5. From the text:
JAK2 EPO-TF1/pSTAT5 cell-based assay mimics the constitutive activation of JAK2-STAT5 in erythroid progenitor cells, which drives the overproduction of red blood cells, a marker of polycythemia vera (PV).
TF-1 (human erythroid leukemia) cells are maintained in RPMI 1640 (RPMI-1640 was developed by Moore et. al. at Roswell Park Memorial Institute. The formulation is based on the RPMI-1630 series of media utilizing a bicarbonate buffering system and alterations in the amounts of amino acids and vitamins.) with 10% fetal bovine serum (FBS), 0.075% sodium bicarbonate, 1 mM sodium pyruvate, 1× antibiotic/antimycotic (Invitrogen, Carlsbad, Calif.) and 0.45% glucose. The medium is supplemented with GM-CSF (granulocyte-macrophage colony-stimulating factor) at a final concentration of 2 ng/mL. Cells are kept at 37° C. with 5% CO2. Cells are starved in serum free medium to remove endogenous growth factors. TF-1 cells are counted and cells are collected to seed 2×10^7 cells per 96-well plate at a density of 2×10^5 cells per well. […]
To perform the assay, serum-starved cells are collected and washed once with unsupplemented RPMI 1640 medium. […] An aliquot of 200 μL of 1 to 10 dilution of Mouse anti-pSTAT5 (pY694) Alexa Fluor 647® in fluorescence activated cell sorting (FACS) buffer is added to the cells. […]

SMILES strings stand for the structures.

T1 sequence (O60674 whole entry): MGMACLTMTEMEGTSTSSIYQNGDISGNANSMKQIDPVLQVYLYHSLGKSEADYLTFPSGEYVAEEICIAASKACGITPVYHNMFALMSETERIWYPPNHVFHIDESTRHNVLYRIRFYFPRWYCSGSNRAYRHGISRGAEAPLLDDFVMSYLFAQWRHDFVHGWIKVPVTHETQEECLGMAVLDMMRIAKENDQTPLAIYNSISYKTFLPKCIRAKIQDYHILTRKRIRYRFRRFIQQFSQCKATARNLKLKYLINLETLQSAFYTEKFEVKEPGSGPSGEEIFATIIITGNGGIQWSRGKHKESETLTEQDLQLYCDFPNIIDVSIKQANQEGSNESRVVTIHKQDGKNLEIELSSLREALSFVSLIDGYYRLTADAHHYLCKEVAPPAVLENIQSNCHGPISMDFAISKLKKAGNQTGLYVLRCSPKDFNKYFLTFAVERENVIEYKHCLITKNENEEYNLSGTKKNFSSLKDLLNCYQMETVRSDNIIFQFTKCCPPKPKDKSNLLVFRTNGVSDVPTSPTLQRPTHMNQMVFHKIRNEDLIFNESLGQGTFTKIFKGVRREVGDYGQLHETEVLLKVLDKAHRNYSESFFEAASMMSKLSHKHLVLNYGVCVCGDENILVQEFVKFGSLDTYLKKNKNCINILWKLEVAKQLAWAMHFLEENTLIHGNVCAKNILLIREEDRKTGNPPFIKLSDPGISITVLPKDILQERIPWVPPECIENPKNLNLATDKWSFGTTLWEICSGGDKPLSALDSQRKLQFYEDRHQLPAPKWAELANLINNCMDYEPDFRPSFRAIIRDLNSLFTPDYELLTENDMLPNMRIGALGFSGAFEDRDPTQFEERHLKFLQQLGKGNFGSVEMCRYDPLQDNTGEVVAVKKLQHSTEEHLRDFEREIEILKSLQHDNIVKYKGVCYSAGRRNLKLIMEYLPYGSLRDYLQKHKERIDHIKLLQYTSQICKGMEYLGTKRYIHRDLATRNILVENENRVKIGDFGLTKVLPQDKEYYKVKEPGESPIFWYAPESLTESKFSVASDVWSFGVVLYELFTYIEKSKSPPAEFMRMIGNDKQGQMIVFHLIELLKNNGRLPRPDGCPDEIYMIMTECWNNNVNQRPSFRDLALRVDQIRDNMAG

With `Cc1cc(Nc2cc(CN3CCOCC3)c3nc(C)c(Cc4ccc(Cl)cc4F)n3n2)n[nH]1` [3-(4-Chloro-2-fluorobenzyl)-2-methyl-N-(5-methyl-1H-pyrazol-3-yl)-8-(morpholinomethyl)imidazo[1,2-b]pyridazin-6-amine], the half-maximal inhibitory concentration (IC50) (usually the concentration at which inhibition is half-maximal) is 33 nM.
